For data set [1], the system named is Mus musculus. In words: Anticonvulsant activity in maximal electroshock induced seizure mouse model assessed as reduction in convulsions at 100 mg/kg, po. Type of data set: functional, organism-based.
The test system of data set [2] is Mus musculus. In words: Anticonvulsant activity in subcutaneous pentylenetetrazole-induced seizure mouse model assessed as reduction in convulsions at 100 mg/kg, po. It is filed as functional, organism-based.
Data set [3] deals with Mus musculus. Briefly: Anticonvulsant activity in subcutaneous pentylenetetrazole-induced seizure mouse model assessed as reduction in convulsions at 25 mg/kg, po. Type of data set: functional, organism-based.
Data set [4] concerns Mus musculus. In words: Anticonvulsant activity in maximal electroshock induced seizure mouse model assessed as reduction in convulsions at 50 mg/kg, po. It is filed as functional, organism-based. (In general: In the maximal electroshock model the usual endpoint is tonic extension of the hind limbs.)
Data set [5] concerns Mus musculus. In words: Anticonvulsant activity in subcutaneous pentylenetetrazole-induced seizure mouse model assessed as reduction in convulsions at 50 mg/kg, po. It is filed as functional, organism-based.
Data set [6] has as its system Mus musculus. In words: Anticonvulsant activity in maximal electroshock induced seizure mouse model assessed as reduction in convulsions at 25 mg/kg, po. Type of data set: functional, organism-based.
In data set [7] the target is T1, GABA-A receptor; anion channel (Rattus norvegicus) (UniProt O09028+P15431+P18506+P18508+P19969+P20236+P23574+P23576+P28471+P28473+P30191+P62813+P63079+P63138+Q91ZM7+Q9ES14). Briefly: Displacement of [3H]flunitrazepam from GABAA receptor in Sprague-Dawley rat cerebral cortex at 30 uM after 60 mins by scintillation counting method.
Data set [8] relates to Rattus norvegicus. Briefly: Anticonvulsant activity in amygdala kindling rat model assessed as change in after discharge threshold at 50 mg/kg, po relative to control. Type of data set: functional.
For data set [9], the system named is Mus musculus. In words: Anticonvulsant activity in po dosed maximal electroshock induced seizure mouse model assessed as reduction in convulsions. It is filed as functional.
Data set [10] deals with Rattus norvegicus. In words: Anticonvulsant activity in amygdala kindling rat model assessed as change in after discharge duration at 100 mg/kg, po (reference value: -5.5%). It is filed as functional.
Data set [11] relates to Rattus norvegicus. In words: Anticonvulsant activity in amygdala kindling rat model assessed as change in after discharge duration at 50 mg/kg, po (reference value: -5.5%). It is filed as functional.
A short description of data set [12]: Stability in rat hepatic microsomes assessed as parent compound remaining after 30 mins in presence of NADPH. Type of data set: ADME, Microsome. As to conditions: liver microsomes, read-out: Stability. (In general: Microsomes from liver hold many membrane-bound enzymes, among them those of drug oxidation.)
Data set [13] is described as follows: Neurotoxicity in po dosed mouse by rotarod test. It is filed as toxicity, organism-based. The settings on record: in vivo. For orientation: In the rotarod test animals must keep their balance on a rotating rod.
Data set [14] in a line: Therapeutic index, ratio of TD50 for neurotoxicity in po dosed mouse to ED50 for po dosed maximal electroshock induced seizure mouse model. It is filed as toxicity, organism-based. As to conditions: in vivo, read-out: Ratio TD50/ED50.
The target of data set [15] is T2, GABA-A receptor; anion channel (Homo sapiens) (UniProt P14867+P47870+P18507+P28472+P48169+Q99928+Q9UN88+P34903+O00591+O14764+Q8N1C3+P18505+P78334+P47869+P31644+Q16445). In words: Displacement of [3H]Ro15-1788 from GABAA receptor (unknown origin) at 30 uM. Type of data set: protein-complex assay.
Data set [16] has as its system Mus musculus. In words: Anticonvulsant activity in po dosed subcutaneous pentylenetetrazole-induced seizure mouse model assessed as reduction in convulsions. Type of data set: functional.
In data set [17] the target is T1, GABA-A receptor; anion channel (Rattus norvegicus). In words: Displacement of […] from GABAA receptor in Sprague-Dawley rat cerebral cortex at 30 uM by scintillation counting method.
Data set [18] relates to Mus musculus. In words: Anticonvulsant activity in po dosed 6-Hz induced seizure mouse model. It is filed as functional.
The test system of data set [19] is Rattus norvegicus. In words: Anticonvulsant activity in amygdala kindling rat model assessed as change in after discharge threshold at 100 mg/kg, po relative to control. Type of data set: functional.
A short description of data set [20]: Stability in human hepatic microsomes assessed as parent compound remaining after 30 mins in presence of NADPH. As to conditions: liver microsomes, read-out: Stability. It is filed as ADME, Microsome.
Data set [21] in a line: Therapeutic index, ratio of TD50 for neurotoxicity in po dosed mouse to ED50 for po dosed 6-Hz induced seizure mouse model. It is filed as toxicity, organism-based. The settings on record: in vivo, read-out: Ratio TD50/ED50.
Data set [22] concerns the target T2, GABA-A receptor; anion channel (Homo sapiens). Briefly: Displacement of [3H]muscimol from GABAA receptor (unknown origin) at 30 uM. Type of data set: protein-complex assay.
Data set [23] has the same target. Briefly: Displacement of [3H]TBOB from GABAA receptor (unknown origin) at 30 uM. Type of data set: protein-complex assay.
Data set [24] has as its system Rattus norvegicus. In words: Anticonvulsant activity in amygdala kindling rat model assessed as change in after discharge threshold at 300 mg/kg, po relative to control. Type of data set: functional.
For data set [25], the system named is Rattus norvegicus. In words: Anticonvulsant activity in amygdala kindling rat model assessed as change in after discharge threshold at 600 mg/kg, po relative to control. It is filed as functional.
Data set [26] relates to Rattus norvegicus. Briefly: Anticonvulsant activity in amygdala kindling rat model assessed as change in after discharge duration at 600 mg/kg, po (reference value: -5.5%). Type of data set: functional.
Data set [27] deals with Rattus norvegicus. Briefly: Anticonvulsant activity in amygdala kindling rat model assessed as change in after discharge duration at 300 mg/kg, po (reference value: -5.5%). It is filed as functional.

22 compounds from ChEMBL document CHEMBL4371063, “Identification of 2-(2'-fluoro-[1,1'-biphenyl]-2-yl)acetamide as a Sodium Valproate-like broad spectrum anti-epileptic drug candidate” (Bioorg Med Chem Lett, 2019) can be followed below.

Active and inactive are the calls of the source.

For `O=C1NC(=O)C(c2ccccc2-c2ccccc2F)N1` (centres undefined), the result in the data set on Mus musculus [1] was Active. In addition, in the data set with Mus musculus [2], the outcome was inactive.

On to `NC(=O)Cc1ccccc1-c1ccccc1Cl`, for which the outcome with Mus musculus [1], in the data set on Mus musculus [4], with Mus musculus [5] and in the data set with Mus musculus [2] was Active. For the same compound, the outcome in the data set on Mus musculus [3] was inactive.

With `NC(=O)Cc1ccccc1-c1ccccc1C(F)(F)F`, the outcome in the data set with Mus musculus [1] was Active. Besides, the outcome in the data set on Mus musculus [4] and in the data set on Mus musculus [5] was inactive.

In the case of `N#Cc1ccccc1-c1ccccc1CC(N)=O`, in the data set with Mus musculus [2], the outcome was inactive.

As for `NC(=O)Cc1cc(F)ccc1-c1ccccc1F`, the outcome in the data set on Mus musculus [1] and in the data set with Mus musculus [2] was Active. Further, the outcome in the data set on Mus musculus [3] and in the data set with Mus musculus [6] was inactive.

As for `NC(=O)Cc1cccnc1-c1ccccc1F`, the result in the data set with Mus musculus [1] was inactive.

Take `NC(=O)Cc1cnccc1-c1ccccc1F`: the outcome in the data set with Mus musculus [1] and in the data set on Mus musculus [2] was inactive.

For `NC(=O)Cc1ncccc1-c1ccccc1F`, the result in the data set on Mus musculus [1] was Active.

Take `NC(=O)Cc1c(F)cccc1-c1ccccc1F`: the outcome with Mus musculus [1] and with Mus musculus [4] was Active.

Regarding `NC(=O)Cc1cccc(F)c1-c1ccccc1F`, the outcome in the data set with Mus musculus [1] and in the data set with Mus musculus [4] was Active. Besides, the result with Mus musculus [3] was inactive.

For orientation: ED50 means the dose at which the effect has come halfway, by size or by number of responders. As usually defined, the TD50 is the 50% point of the dose-response relation for the toxic effect studied. A low value points to harm at a small dose. With `NC(=O)Cc1ccccc1-c1ccccc1F`, the inhibition result in data set [7], in data set [15], in [17], in data set [22] and in data set [23] was “inactive” in each case. The Activity in the data set with Rattus norvegicus [8] is reported as 75.9%; with Rattus norvegicus [10], -22.9%; with Rattus norvegicus [11], -22.9%; in the data set on Rattus norvegicus [19] it was 80.1%. Besides, the ED50 in the data set with Mus musculus [9] amounted to 27 mg/kg; in the data set with Mus musculus [16], 27 mg/kg; in the data set with Mus musculus [18], 56 mg/kg. Further, the outcome in the data set on Mus musculus [1] and with Mus musculus [4] was Active. Further, the remaining at 0.5 h in [12] and in data set [20] was above 95% each time. The compound also displayed a TD50 in data set [13] of 129 mg/kg. Moreover, the selectivity ratio came to 4.8 in [14] and 2.3 in data set [21].

`NC(=O)Cc1ccccc1-c1ccncc1F`: the outcome with Mus musculus [1] was inactive.

On to `NC(=O)Cc1ccc(F)cc1-c1ccccc1F`, for which the outcome in the data set on Mus musculus [1] and with Mus musculus [4] was Active. In addition, the result with Mus musculus [6] was inactive.

Consider `O=C(O)Cc1ccccc1-c1ccccc1F`, for which the outcome in the data set with Mus musculus [1] and in the data set on Mus musculus [2] was inactive.

With `O=C1CCCN1c1ccccc1-c1ccccc1F`, in the data set with Mus musculus [1], the result was Active. In addition, the outcome in the data set with Mus musculus [2] was inactive.

For the compound `NC(=O)Cc1ccccc1-c1ccc(F)cc1F`, in the data set with Mus musculus [1], the outcome was Active.

For the compound `NC(=O)Cc1ccccc1-c1cc(F)ccc1F`, the result in the data set on Mus musculus [1], with Mus musculus [4] and with Mus musculus [2] was Active. The outcome in the data set on Mus musculus [3] and in the data set with Mus musculus [6] was inactive.

In the case of `NC(=O)c1ccccc1-c1ccccc1F`, the outcome in the data set on Mus musculus [1], with Mus musculus [6] and in the data set with Mus musculus [4] was Active.

As to `CCCC(CCC)C(=O)[O-].[Na+]` [VALPROATE SODIUM], the Activity was -5.4% in the data set with Rattus norvegicus [24], 81.3% in the data set with Rattus norvegicus [25], -22.5% in the data set with Rattus norvegicus [26] and 11.1% in the data set with Rattus norvegicus [27]. Besides, the median effective dose (ED50) with Mus musculus [9] turned out to be 309 mg/kg; with Mus musculus [16] it was 336 mg/kg; with Mus musculus [18] it was 343 mg/kg. This compound also registered a TD50 in [13] of 396 mg/kg.

As for `NC(=O)Cc1ccccc1-c1c(F)cccc1F`, the result in the data set with Mus musculus [1], with Mus musculus [6], with Mus musculus [4] and in the data set on Mus musculus [2] was Active. Moreover, the result in the data set with Mus musculus [3] was inactive.

Take `CNS(=O)(=O)c1ccccc1-c1ccccc1F`: the outcome in the data set with Mus musculus [1], with Mus musculus [6], in the data set on Mus musculus [4], in the data set with Mus musculus [5] and in the data set on Mus musculus [2] was Active.

In the case of `COc1ccccc1-c1ccccc1CC(N)=O`, the outcome in the data set with Mus musculus [4] was inactive.
